According to patent US6297250A, “Pyrimidopyrimidine compounds” (Newcastle University Ventures Limited, priority 1997, dated 2001):
Values joined by “and” are separate entries in the source; they are usually repeats but may differ in a detail not shown here. Equal entries are not always repeated. Where two headings read alike, the source gives them in different places.

Experiments:
A549 [1] = details: earlier experiments; cited from earlier work
MCF7 [2] = details: earlier experiments; cited from earlier work
A549 [3] = test: Prevention of hypoxanthine rescue from antifolate growth inhibition (sulphorhodamine B); type: cell-based; details: 3 μM NU3076, 10 μM hypoxanthine
Description: (§1) For example, in investigating the compound NU3076, two lung cancer cell lines: A549 and COR L23 and two breast cancer cell lines MCF7 and MDA MB231 were selected for study. All cell lines were adapted to growth in dialysed serum as previously referred to. […] Cells were exposed to varying concentrations of LY309887 in the presence or absence of 10 μM hypoxanthine, with or without 3 μM NU3076. At the end of the exposure period the cells were fixed and stained with sulphorhodamine B. Hypoxanthine protected all the cell lines from LY309887 growth inhibition.

MCF7 [4] = test: as above; type: cell-based; details: 3 μM NU3076, 10 μM hypoxanthine
Description: as §1

L1210 cells = test: Nucleoside transport inhibition assay: inhibition of 3H-thymidine uptake, with or without AGP or HSA; type: cell-based, murine; details: for inhibition at 1 µM: L1210, 1 μM compound; for inhibition at 10 µM: L1210, 10 μM compound; for inhibition at 0.1 µM: L1210, 0.1 μM compound
Description: In vitro activity. […] For testing the compounds an established nucleoside transport assay involving measurement of thymidine uptake was adapted. Murine leukaemia L1210 cells were used in this assay as their nucleoside transport characteristics are well known. This assay for measuring thymidine uptake used a modification of the rapid mixing technique of Wohleheuter, R. […] Materials used included a transport buffer comprising 130 mM NaCl, 5 mM KC1, 1 mM MgCl, 5 mM NaH2 PO4, 10 mM glucose and 10 mM HEPES. This buffer was made up as sterile 5× concentrate and reconstituted in distilled water and adjusted to pH 7.4 immediately prior to carrying out the assay. […] The supernatant was aspirated and the cells were washed with ice-cold transport buffer and centrifuged again at 1000 rpm for 5 minutes at 4° C. The supernatant was removed and the cells were resuspended in ice-cold transport buffer to give a final cell density of 2-4×10^7 cells/mi. Cells were left on ice for 30 minutes recovery prior to starting the assay. […] The suspension was mixed well and 100 μl was layered onto 150 μl silicone oil (9:11 Dow Corning 556 (Sp.Gr. 0.98):Dow Corning 550 (Sp.Gr. 1.068) (final Sp.Gr. 1.028) overlaying 50 μl 3M KOH in 6 replicate 0.5 ml microfuge tubes. […] The tubes were immediately transferred to a microfuge (Eppendorf) and spun at 12000 rpm for 2 minutes to pellet the cells through the oil and into the KOH. The tubes were capped and the cells left to solubilise in the KOH for 1 hour. Cell number and viability for each run was determined by haemocytometer counting using trypan blue exclusion. […] The tubes were capped and cut in the oil layer such that the bottom portion (cells solubilised in KOH) fell into a 20 ml scintillation vial. 1 ml 0.25M acetic acid followed by 1 ml air was injected into the tube using a 2 ml syringe and 23-gauge needle to disperse and neutralise the KOH-solubilisedcells. 10 ml of Optiphase HiSafe™ scintillant was added and the vials capped and shaken. […] The [^14 C]:[^3 H] ratio was used to calculate the amount of non-transported contaminating [^3 H]thymidine in the extracellular space.

[5] = Mus musculus, +5 mg/ml AGP vs no AGP, read-out: % Reduction (of inhibition by AGP)
[6] = Mus musculus, +5 mg/ml AGP, read-out: % Inhibition of 3H-thymidine uptake, +5 mg/ml AGP
[7] = Mus musculus, no AGP, read-out: % Inhibition of 3H-thymidine uptake, No AGP
[8] = +5 mg/ml AGP, compound concentration not assignable from the table
[9] = 0.1 μM compound, no AGP, 0.1 µM

Structure (SMILES)	% Inhibition of 3H-thymidine uptake, No AGP (L1210 cells; 1 μM compound, no AGP, 1 µM)	inhibition at 1 µM (L1210 cells; [7])	inhibition at 10 µM (L1210 cells; [7])	IC50 (L1210 cells; Mus musculus, L1210, no AGP)	IC50 (L1210 cells; no AGP)	other results
OCCN(CCO)c1nc(N2CCCCC2)c2nc(N(CCO)CCO)nc(N3CCCCC3)c2n1 [NU3003, 2,6-bis(diethanolamino)-4,8-dipiperidinopyrimidopyrimidine, reference compound]						Block of hypoxanthine rescue from lometerxol growth inhibition (A549 [1]): blocked hypoxantine rescue; Block of hypoxanthine rescue from lometerxol growth inhibition (MCF7 [2]): blocked hypoxantine rescue
COc1ccc(CNc2nc(N(CCO)CCO)nc3c(NCc4ccc(OC)cc4)nc(N(CCO)CCO)nc23)cc1 [NU3076, 2,6-bis (Diethanolamino)-4,8-di[(4'-methoxybenzyl)amino]pyrimidopyrimidine]	56 ± 10%	65 ± 11%	96 ± 8%	253 ± 75 nM		Prevention of hypoxanthine rescue from LY309887 growth inhibition (A549 [3]): prevented hypoxanthine rescue; Prevention of hypoxanthine rescue from LY309887 growth inhibition (MCF7 [4]): prevented hypoxanthine rescue; % Inhibition of 3H-thymidine uptake, +40 mg/ml HSA (L1210 cells; 3 h): 89 ± 10%; inhibition at 1 µM (L1210 cells; [5]): 18%; inhibition at 1 µM (L1210 cells; [6]): 46 ± 8%; inhibition at 10 µM (L1210 cells; [5]): 7%; inhibition at 10 µM (L1210 cells; [6]): 89 ± 14%; Effect of AGP on the inhibition of thymidine uptake (L1210 cells; in words): no significant reduction; Potency as inhibitor relative to dipyridamole (L1210 cells; presence and absence of AGP, or of 40 mg/ml human serum albumin): more potent inhibitors than dipyridamole
COc1ccc(CN(C)c2nc(OCCCO)nc3c(N(C)Cc4ccc(OC)cc4)nc(OCCCO)nc23)cc1 [NU3090, 2,6-Di(3'-hydroxypropoxy)-4,8-di[(N-4'-methoxybenzylmethyl)amino]pyrimidopyrimidine]	74 ± 18% and 69 ± 19%				220 nM and 240 nM	% Reduction (of inhibition by AGP) (L1210 cells; 1 μM compound, +5 mg/ml AGP vs no AGP): 53%; % Inhibition of 3H-thymidine uptake, +5 mg/ml AGP (L1210 cells; 1 μM compound, +5 mg/ml AGP, 1 µM): 32 ± 10% and 32%; % Inhibition of 3H-thymidine uptake, No AGP (L1210 cells; 10 μM compound, no AGP): 100 ± 0%
CCCOc1nc(N(C)Cc2ccccc2)c2nc(OCCC)nc(N(C)Cc3ccccc3)c2n1 [NU3091, 2,6-Di(n)propoxy-4,8-di[(N-benzylmethyl)amino]-pyrimidopyrimidine]			8.2 ± 1.1%			% Inhibition of 3H-thymidine uptake, No AGP (L1210 cells; 1 μM compound, no AGP): Inactive
COCCOc1nc(N(C)Cc2ccccc2)c2nc(OCCOC)nc(N(C)Cc3ccccc3)c2n1 [NU3092, 2,6-Di(-2'-methoxyethoxy)-4,8-di[(N-benzylmethyl)amino]-pyrimidopyrimidine]		17 ± 8%	68 ± 8%	5900 nM	3800 nM	
COCCOc1nc(N2CCCCC2)c2nc(OCCOC)nc(N3CCCCC3)c2n1 [NU3093, 2,6-Di(-2'-methoxyethoxy)-4,8-dipiperidinopyrimidopyrimidine]		20 ± 6%	63%	4600 nM		% Inhibition of 3H-thymidine uptake, No AGP (L1210 cells; 10 μM compound, no AGP, 10 µM): 68%
COCCOc1nc(N(Cc2ccccc2)Cc2ccccc2)c2nc(OCCOC)nc(N(Cc3ccccc3)Cc3ccccc3)c2n1 [NU3094, 2,6-di(-2-methoxyethoxy)-4,8-bis(dibenzylamino) pyrimidopyrimidine]		9 ± 10%	15 ± 4%			
COCCOc1nc(NCc2ccccc2)c2nc(OCCOC)nc(NCc3ccccc3)c2n1 [NU3095, 2,6-di(-2-methoxyethoxy)-4,8-dibenzylaminopyrimidopyrimidine]		31.2%	78.4 ± 4.2%	2400 nM		
COc1ccc(CN(C)c2nc(OCCCO)nc3c(N(C)Cc4ccc(OC)c(OC)c4)nc(OCCCO)nc23)cc1OC [NU3096, 2,6-di(-3-hydroxypropoxy)-4,8-bis[(-3,4-dimethoxybenzyl)-N-methylamino]pyrimidopyrimidine]		54 ± 2%		750 nM		
COc1ccc(CNc2nc(OCCCO)nc3c(NCc4ccc(OC)cc4)nc(OCCCO)nc23)cc1 [NU3097, 2,6-di(-3-hydroxypropoxy)-4,8-di(-4-methoxybenzylamino)pyrimidopyrimidine]	62%	61 ± 8%		460 nM	820 nM	inhibition at 1 µM (L1210 cells; [5]): 21%; inhibition at 1 µM (L1210 cells; [6]): 49%
CN(Cc1ccccc1)c1nc(OCCO)nc2c(N(C)Cc3ccccc3)nc(OCCO)nc12 [NU3098, 2,6-di(-2-hydroxyethoxy)-4,8-di(N-methylbenzylamino)pyrimidopyrimidine]		44%			1870 nM	% Inhibition of 3H-thymidine uptake, No AGP (L1210 cells; 10 μM compound, no AGP, 10 µM): 87 ± 11%
COc1ccc(CNc2nc(NCCO)nc3c(NCc4ccc(OC)cc4)nc(NCCO)nc23)cc1 [NU3099, 2,6-Di-(2-hydroxyethyl)amino-4,8-di-[4-methoxybenzyl]-aminopyrimidopyrimidine]	52% and 62% and 65%	54%		930 nM	1200 nM	% Inhibition of 3H-thymidine uptake, +5 mg/ml AGP (L1210 cells; [8]): 30% and 35%; inhibition at 0.1 µM (L1210 cells; Mus musculus, no AGP): 5%
COc1ccc(CN(C)c2nc(OCCCO)nc3c(N(C)Cc4ccc(OC)cc4)nc(OCCCO)nc23)cc1 [NU3100, 2,6-Di-(3-hydroxypropoxy)-4,8-di-(N-[4-methoxybenzyl]-N-methyl)aminopyrimidopyrimidine]		88%		190 nM		
OCCNc1nc(NCc2ccccc2)c2nc(NCCO)nc(NCc3ccccc3)c2n1 [NU3101, 2,6-Di-(2-hydroxyethylamino)-4,8-dibenzylaminopyrimidopyrimidine]		58%				inhibition at 0.1 µM (L1210 cells; Mus musculus, no AGP): 2%
COc1ccc(CN(C)c2nc(N(CCO)CCO)nc3c(N(C)Cc4ccc(OC)cc4)nc(N(CCO)CCO)nc23)cc1 [NU3102, 2,6-bis-Diethanolamino-4,8-di-(N-[4-methoxybenzyl]-N-methyl)aminopyrimidopyrimidine]	57%	51%		980 nM	840 nM	% Inhibition of 3H-thymidine uptake, No AGP (L1210 cells; [9]): 20%; % Inhibition of 3H-thymidine uptake, No AGP (L1210 cells; 10 μM compound, no AGP): insoluble; inhibition at 0.1 µM (L1210 cells; Mus musculus, no AGP): 23%
CN(Cc1ccccc1)c1nc(OCCO)nc2c(N(C)Cc3ccccc3)nc(OCCO)nc12 [NU3103, 2,6-Di-(2-hydroxyethoxy)-4,8-di-(N-benzyl-N-methyl)aminopyrimidopyrimidine]	50% and 60%		90%		1010 nM and 800 nM	% Inhibition of 3H-thymidine uptake, No AGP (L1210 cells; [9]): 18%; % Inhibition of 3H-thymidine uptake, No AGP (L1210 cells; 10 μM compound, no AGP, 10 µM): 84%; % Inhibition of 3H-thymidine uptake, +5 mg/ml AGP (L1210 cells; [8]): 21% and 23%; inhibition at 0.1 µM (L1210 cells; Mus musculus, no AGP): 12%
